These results are taken from US20200002354A1, “HEXAHYDROPYRAZINOBENZ- OR -PYRIDO-OXAZEPINES CARRYING AN OXYGEN-CONTAINING SUBSTITUENT AND USE THEREOF IN THE TREATMENT OF 5-HT2C-DEPENDENT DISORDERS” (AbbVie Deutschland GmbH & Co. KG, priority 2015, published 2020).

Where two headings read alike, the source gives them in different places. A value given as a limit tells only on which side of the number the result lay.

One data set addresses T1, human 5-HT2B receptor (Homo sapiens, UniProt P41595).
T1 construct: expressed in transfected cells; host or cells: CHO-FlpIn
Description: Human 5-HT2B functional assay (calcium mobilisation in CHO-FlpIn cells, FLIPR). The data set is classed as cell-based. As to conditions: based on agonism: EC50 5-HT2B/EC50 5-HT2C. How it is done:
3. Human 5-HT2B Functional Assay
Functional activity on the 5-HT2B receptor was determined by testing the effect of the compounds I on calcium mobilisation in CHO-FlpIn cells, stably transfected with human 5-HT2B receptor. Cells were seeded into sterile black 384-well plates with clear bottom at 30,000 cells/well in a volume of 25 μl and grown overnight at 37° C., in 5% CO2 in tissue culture medium (“CHO-S-SFM II” by Invitrogen), containing 1% dialysed FCS and 50 μg/ml gentamicin (Invitrogen). On the next morning, medium was replaced by a serum free version of the same tissue culture medium for a further incubation for 4 hours at 37° C. and in 5% CO2. Cells were then loaded with a fluorescent calcium-sensitive dye in the presence of 0.07% probenecid for an hour at 37° C., according to the manufacturer's protocol (Ca5-Assay Kit, Molecular Devices), followed by an additional 60 min incubation at room temperature. Serial compound dilutions (final concentrations of 10^−10 to 10^−5M, prepared in HBSS+50 mM HEPES) were first added to the cells alone (“first addition” to assess agonism on the 5-HT2B receptor), then after 8 min, serotonin was added to the same wells at a final concentration of 10^−8 M (“second addition” to see potential antagonistic effect) and the maximal calcium response was determined using a FLIPR® Tetra instrument (Molecular Devices) in each of the two steps. The relative efficacy of the compounds was calculated as a percentage of the maximal effect induced by serotonin alone (defined as 100%). To determine EC50/IC50 values, concentration-response curves were fitted using a four-parameter logistic equation (IDBS Biobookml). Kb values were calculated from IC50 values, according to Cheng & Prusoff
(Calcium assays in cells follow changes in intracellular calcium, usually with a dye or a luminescent sensor.)

The next data set deals with T2, 5-HT2C receptor (Homo sapiens, UniProt P28335).
T2 construct: host or cells: U2OS
T2 sequence (P28335 33-458): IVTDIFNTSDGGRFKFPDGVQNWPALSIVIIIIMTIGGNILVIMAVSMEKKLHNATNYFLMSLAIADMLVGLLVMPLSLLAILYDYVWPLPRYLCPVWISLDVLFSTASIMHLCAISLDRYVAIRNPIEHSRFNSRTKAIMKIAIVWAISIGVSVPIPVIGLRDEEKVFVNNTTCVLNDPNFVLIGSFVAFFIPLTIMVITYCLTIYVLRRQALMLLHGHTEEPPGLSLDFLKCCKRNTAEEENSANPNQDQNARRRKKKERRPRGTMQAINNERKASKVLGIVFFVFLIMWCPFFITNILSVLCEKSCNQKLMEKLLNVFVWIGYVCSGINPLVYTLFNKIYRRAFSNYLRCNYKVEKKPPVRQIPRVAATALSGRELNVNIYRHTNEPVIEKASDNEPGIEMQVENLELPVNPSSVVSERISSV
T2 sequence (P32121 whole entry partner): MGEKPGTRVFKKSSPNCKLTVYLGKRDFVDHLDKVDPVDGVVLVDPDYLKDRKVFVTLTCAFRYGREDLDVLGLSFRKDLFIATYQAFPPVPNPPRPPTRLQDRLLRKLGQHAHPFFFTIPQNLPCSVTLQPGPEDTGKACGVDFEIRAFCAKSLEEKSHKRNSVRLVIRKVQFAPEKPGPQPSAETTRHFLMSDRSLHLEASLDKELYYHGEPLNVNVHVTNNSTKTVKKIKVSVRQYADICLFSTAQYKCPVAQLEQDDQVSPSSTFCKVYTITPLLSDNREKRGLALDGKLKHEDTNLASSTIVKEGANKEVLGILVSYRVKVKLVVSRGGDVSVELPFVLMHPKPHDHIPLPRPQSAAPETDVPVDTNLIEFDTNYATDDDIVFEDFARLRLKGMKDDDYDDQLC
Description: Human 5-HT2C functional assay (beta-arrestin2 recruitment, U2OS_HTR2C_β-Arrestin cells). The class given is cell-based. As to conditions: for Emax: relative efficacy vs maximal effect induced by 5-HT (defined as 100%). How it is done: 1. Human 5-HT2C Functional Assay
The functional activity of compounds of formula I was assayed by incubation with U2OS_HTR2C_β-Arrestin cells (DiscoverX, 93-0289C3) to induce beta-arrestin2 recruitment to the 5-HT2C receptor. The agonist-induced recruitment and proximity of the receptor and beta-arrestin2 leads to complementation and formation of active β-galactosidase. The enzyme complementation results in enzyme activity, which is measured following the termination of the agonist incubation using DiscoveRx's detection reagent, which contains a chemiluminescent substrate which produces a high intensity signal. Cells were plated and a medium-change to a 1% serum containing medium was performed 24 h later. The next day, test compounds were added and incubated for 1.5 h before addition of detection reagent.
The response produced was measured and compared with the response produced by 10 [mu]M 5-HT or the maximal effect induced by 5-HT (defined as 100%) to which it was expressed as a percentage response (relative efficacy).

A short description of data set [1]: Metabolic stability in human liver microsomes, unbound intrinsic clearance. The class given is in vitro ADME. The note with it: pH 7.4. The method, then: Samples of the tested compounds (0.5 μM) were preincubated together with human liver microsomes (0.25 mg of microsomal protein/mL) in 0.05 M potassium phosphate buffer of pH 7.4 in microtiter plates at 37° C. for 5 minutes. The reaction was started by adding NADPH (1.0 mM). After 0, 5, 10, 15, 20 and 30 minutes, an aliquot was removed, the reaction was cooled and stopped by adding twice the amount of quench solution consisting of acetonitrile/methanol 1:1, and containing 0.2 μM carbutamide as internal standard. The samples were frozen until analyzed. The remaining concentration of undegraded test substance was determined by liquid chromatography-tandem mass spectrometry (LC-MS/MS). The half-life (t1/2) was determined from the gradient of the ratio of the signal of (test substance/internal standard)/unit time plot, allowing the calculation of the half-life of the test substance, assuming first order kinetics, from the decrease in the concentration of the compound with time. The microsomal clearance (mClint) was calculated as follows: mClint=((ln(2)/t ½)/Microsomal Protein Concentration (mg/ml))*1000, leading to the unit of uL/min/mg. The scaled clearance (mClin_scaled) was calculated as mCLint_scaled=m CLint*(Microsomal Yield (mg/kg BW))/1000000*60, leading to the units L/h/kg. The Microsomal Yield is defined by the specifics of the used microsomes. Calculations were modified from references: Di, The Society for Biomolecular Screening, 2003, 453-462; Obach, D M D, 1999 vol 27. N 11, 1350-1359.
Calculation of Unbound Intrinsic Clearance
C1int unbound=C1 int/fu mic
Background: Liver microsomes are vesicles of endoplasmic reticulum, rich in cytochrome P450 enzymes.

Another data set concerns the target T3, human 5-HT2A receptor (Homo sapiens, UniProt P28223).
T3 construct: expressed in transfected cells; host or cells: CHO-K1
The experiment in a line: Human 5-HT2A functional assay (calcium mobilisation in CHO-K1 cells, FLIPR). The class given is cell-based. The note with it: based on agonism: EC50 5-HT2A/EC50 5-HT2C. The method, then: 2. Human 5-HT2A Functional Assay
Functional activity on the 5-HT2A receptor was determined by testing the effect of the compounds I on calcium mobilisation in CHO-K1 cells, stably transfected with human 5-HT2A receptor. Cells were seeded into sterile black 384-well plates with clear bottom at 25,000 cells/well in a volume of 25 μl and grown for 5-6 hours at 37° C., in 5% CO2 in tissue culture medium (“Ultra CHO” by LONZA), containing 1% dialysed FCS and 50 μg/ml gentamicin (Invitrogen). After this incubation, medium was replaced by a serum free version of the same tissue culture medium followed by incubation overnight at 37° C. and in 5% CO2. Cells were then loaded with a fluorescent calcium-sensitive dye in the presence of 0.07% probenecid for an hour at 37° C., according to the manufacturer's protocol (Ca5-Assay Kit, Molecular Devices), followed by an additional 60 min incubation at room temperature. Serial compound dilutions (final concentrations of 10^−10 to 10^−5M, prepared in HBSS+50 mM HEPES) were first added to the cells alone (“first addition” to assess agonism on the 5-HT2A receptor), then after 8 min, serotonin was added to the same wells at a final concentration of 3×10^−8 M (“second addition” to see potential antagonistic effect) and the maximal calcium response was determined using a FLIPR® Tetra instrument (Molecular Devices) in each of the two steps. The relative efficacy of the compounds was calculated as a percentage of the maximal effect induced by serotonin alone (defined as 100%). To determine EC50/IC50 values, concentration-response curves were fitted using a four-parameter logistic equation (IDBS Biobookml). Kb values were calculated from IC50 values, according to Cheng & Prusoff

Where [2] appears, read: Potency (EC50 5-HT2C) in functional assay, agonism, read-out: EC50 5-HT2C.
[3] abbreviates: liver microsomes, unbound intrinsic clearance (human), Clint unbound = Cl int/fu mic, read-out: Cl int, mic unb. (h).

T1 sequence (P41595 whole entry): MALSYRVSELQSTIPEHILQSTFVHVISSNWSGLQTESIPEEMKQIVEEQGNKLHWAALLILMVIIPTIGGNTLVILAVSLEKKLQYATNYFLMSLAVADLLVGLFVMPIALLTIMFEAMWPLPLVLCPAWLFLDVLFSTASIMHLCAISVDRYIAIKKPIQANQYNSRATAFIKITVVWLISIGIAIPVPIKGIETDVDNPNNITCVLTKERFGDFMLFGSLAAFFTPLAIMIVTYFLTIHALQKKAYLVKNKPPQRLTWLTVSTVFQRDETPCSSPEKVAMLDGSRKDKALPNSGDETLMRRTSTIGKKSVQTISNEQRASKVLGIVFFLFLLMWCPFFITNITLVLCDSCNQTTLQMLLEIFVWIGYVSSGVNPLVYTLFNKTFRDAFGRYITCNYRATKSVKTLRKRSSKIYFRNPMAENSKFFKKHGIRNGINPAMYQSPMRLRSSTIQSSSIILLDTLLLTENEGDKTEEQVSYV
T3 sequence (P28223 whole entry): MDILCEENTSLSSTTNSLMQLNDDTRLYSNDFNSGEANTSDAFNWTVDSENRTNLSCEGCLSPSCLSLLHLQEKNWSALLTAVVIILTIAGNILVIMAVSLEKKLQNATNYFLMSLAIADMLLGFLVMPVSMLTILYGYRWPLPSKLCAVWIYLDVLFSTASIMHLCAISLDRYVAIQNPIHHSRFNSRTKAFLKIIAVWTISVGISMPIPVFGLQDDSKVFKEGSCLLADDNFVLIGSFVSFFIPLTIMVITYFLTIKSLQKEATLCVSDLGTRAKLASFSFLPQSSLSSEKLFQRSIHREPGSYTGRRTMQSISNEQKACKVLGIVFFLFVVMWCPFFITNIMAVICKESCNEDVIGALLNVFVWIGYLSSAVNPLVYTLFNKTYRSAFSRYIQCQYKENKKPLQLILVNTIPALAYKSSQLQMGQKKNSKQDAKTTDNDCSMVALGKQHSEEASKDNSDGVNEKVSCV

One may read the EC50 as the concentration giving half of the maximal effect. The Emax is the maximal effect, on the per cent scale that the assay sets. Take `COC[C@@H]1C[C@@H]2CNCCN2c2cccc(Cl)c2O1.Cl` [Example 1, (4aR,6S)-8-Chloro-6-(methoxymethyl)-2,3,4,4a,5,6-hexahydro-1H-pyrazino[2,1-d][1,5]benzoxazepine hydrochloride]: the “Selectivity over 5-HT2B” value at human 5-HT2B receptor is on record as “+++ (>100)”. Also, at 5-HT2C receptor (setting [2]), the EC50 was less than 20 nM. Also, on 5-HT2C receptor, the Emax is greater than 70%. Besides, the CLint scaled at 0.5 μM in data set [1] (setting [3]) was less than 83.3 mL/min/kg. Also, the “Selectivity over 5-HT2A” value on human 5-HT2A receptor is “+++ (>100)”.
With `COC[C@H]1C[C@@H]2CNCCN2c2cccc(Cl)c2O1.O=C(O)C(F)(F)F` [Example 2, (4aR,6R)-8-Chloro-6-(methoxymethyl)-2,3,4,4a,5,6-hexahydro-1H-pyrazino[2,1-d][1,5]benzoxazepine; 2,2,2-trifluoroacetic acid], the “Selectivity over 5-HT2B” value on human 5-HT2B receptor is “+++ (>100)”. Further, the EC50 at 5-HT2C receptor (setting [2]) lay within 20 to 200 nM. This molecule also showed an Emax on 5-HT2C receptor of 50 to 70%. The CLint scaled at 0.5 μM in data set [1] (setting [3]) was less than 83.3 mL/min/kg. Also, the “Selectivity over 5-HT2A” value at human 5-HT2A receptor is “+++ (>100)”.
Consider `COC[C@@H]1C[C@@H]2CNCCN2c2ccccc2O1.O=C(O)C(F)(F)F` [Example 3, (4aR,6S)-6-(Methoxymethyl)-2,3,4,4a,5,6-hexahydro-1H-pyrazino[2,1-d][1,5]benzoxazepine; 2,2,2-trifluoroacetic acid], for which the “Selectivity over 5-HT2B” value at human 5-HT2B receptor was “+ (from 10 to 30)”. At 5-HT2C receptor, this molecule registered an EC50 of 200 to 1000 nM and an Emax of 50 to 70%. In addition, the CLint scaled at 0.5 μM in data set [1] (human, microsomes) is less than 83.3 mL/min/kg. The “Selectivity over 5-HT2A” value on human 5-HT2A receptor is “+ (from 10 to 30)”.
As to `COC[C@@H]1C[C@@H]2CNCCN2c2ccc(F)c(Cl)c2O1.Cl` [Example 5, (4aR,6S)-8-Chloro-9-fluoro-6-(methoxymethyl)-2,3,4,4a,5,6-hexahydro-1H-pyrazino[2,1-d][1,5]benzoxazepine hydrochloride], the “Selectivity over 5-HT2B” value on human 5-HT2B receptor was “+ (from 10 to 30)”. For the same molecule, the half-maximal effective concentration (EC50) at 5-HT2C receptor (setting [2]) is less than 20 nM. Besides, the Emax on 5-HT2C receptor is greater than 70%. In addition, the CLint scaled at 0.5 μM in data set [1] (setting [3]) was less than 83.3 mL/min/kg. Further, the “Selectivity over 5-HT2A” value at human 5-HT2A receptor is on record as “+++ (>100)”.
The corresponding values for `COC[C@@H]1C[C@@H]2CNCCN2c2cccc(C(F)F)c2O1.Cl` [Example 6, (4aR,6S)-8-(Difluoromethyl)-6-(methoxymethyl)-2,3,4,4a,5,6-hexahydro-1H-pyrazino[2,1-d][1,5]benzoxazepine hydrochloride] are “++ (from >30 to 100)”, less than 20 nM, greater than 70%, less than 83.3 mL/min/kg and “+++ (>100)”.
On the same counts, the results for `COC[C@@H]1C[C@@H]2CNCCN2c2cc(F)cc(Cl)c2O1.Cl` [Example 7, (4aR,6S)-8-Chloro-10-fluoro-6-(methoxymethyl)-2,3,4,4a,5,6-hexahydro-1H-pyrazino[2,1-d][1,5]benzoxazepine hydrochloride] are “+++ (>100)”, less than 20 nM, greater than 70%, less than 83.3 mL/min/kg and “+++ (>100)”.
The corresponding values for `COC[C@@H]1C[C@@H]2CNCCN2c2cc(F)ccc2O1.Cl` [Example 8, (4aR,6S)-10-Fluoro-6-(methoxymethyl)-2,3,4,4a,5,6-hexahydro-1H-pyrazino[2,1-d][1,5]benzoxazepine hydrochloride] are “+++ (>100)”, 20 to 200 nM, greater than 70%, less than 83.3 mL/min/kg and “+++ (>100)”.
`COC[C@@H]1C[C@@H]2CNCCN2c2cc(F)cc(C(F)F)c2O1.Cl` [Example 9, (4aR,6S)-8-(Difluoromethyl)-10-fluoro-6-(methoxymethyl)-2,3,4,4a,5,6-hexahydro-1H-pyrazino[2,1-d][1,5]benzoxazepine hydrochloride]: the “Selectivity over 5-HT2B” value on human 5-HT2B receptor is listed as “+++ (>100)”. Besides, on 5-HT2C receptor (setting [2]), the EC50 is less than 20 nM. The molecule also displayed an Emax at 5-HT2C receptor greater than 70%. Besides, the CLint scaled at 0.5 μM in data set [1] (setting [3]) was less than 83.3 mL/min/kg. Moreover, on human 5-HT2A receptor, the “Selectivity over 5-HT2A” value is given as “+++ (>100)”.
In the case of `COC[C@@H]1C[C@@H]2CNCCN2c2cc(Cl)ccc2O1.Cl` [Example 10, (4aR,6S)-10-Chloro-6-(methoxymethyl)-2,3,4,4a,5,6-hexahydro-1H-pyrazino[2,1-d][1,5]benzoxazepine hydrochloride], on human 5-HT2B receptor, the “Selectivity over 5-HT2B” value is on record as “++ (from >30 to 100)”. Besides, on 5-HT2C receptor (setting [2]), the EC50 was in the range of 20 to 200 nM. Moreover, the CLint scaled at 0.5 μM in data set [1] (setting [3]) was in the range of 83.3 to 833 mL/min/kg. Moreover, on human 5-HT2A receptor, the “Selectivity over 5-HT2A” value is listed as “++ (from >30 to 100)”.
For the molecule `COC[C@@H]1C[C@@H]2CNCCN2c2cc(F)cc(F)c2O1.Cl` [Example 11, (4aR,6S)-8,10-Difluoro-6-(methoxymethyl)-2,3,4,4a,5,6-hexahydro-1H-pyrazino[2,1-d][1,5]benzoxazepine hydrochloride], the “Selectivity over 5-HT2B” value on human 5-HT2B receptor is given as “++ (from >30 to 100)”. The EC50 at 5-HT2C receptor (setting [2]) is 20 to 200 nM. This molecule showed an Emax at 5-HT2C receptor greater than 70%. Further, the CLint scaled at 0.5 μM in data set [1] (setting [3]) was less than 83.3 mL/min/kg. Further, on human 5-HT2A receptor, the “Selectivity over 5-HT2A” value is on record as “+++ (>100)”.
Regarding `COC[C@@H]1C[C@@H]2CNCCN2c2c(F)c(F)c(F)c(Cl)c2O1.Cl` [Example 55, (4aR,6S)-8-Chloro-9,10,11-trifluoro-6-(methoxymethyl)-2,3,4,4a,5,6-hexahydro-1H-pyrazino[2,1-d][1,5]benzoxazepine hydrochloride], on human 5-HT2B receptor, the “Selectivity over 5-HT2B” value is “+++ (>100)”. For the same molecule, the EC50 at 5-HT2C receptor (setting [2]) was less than 20 nM. The same molecule gave an Emax at 5-HT2C receptor greater than 70%. At human 5-HT2A receptor, the “Selectivity over 5-HT2A” value was “+++ (>100)”.
